This is an account of results in patent publication EP4775570A1, “CYP11A1 INHIBITOR, PREPARATION METHOD THEREFOR AND USE THEREOF” (Shenzhen Zhongge Biological Technology Co., Ltd., priority 2023, dated 2025).

Bounds are passed on as bounds.

Data set [1] is described as follows: PK study, intravenous and oral administration, plasma LC-MS/MS. The data set is classed as in vivo. The settings on record: both sexes, 5 mg/kg, oral administration of 5 mpk, species not given (ICR mice or SD Rat); for bioavailability: read-out: bioavailability (F). How it is done: ICR mice (male/female, total 6 animals) were assigned to two groups for oral administration and intravenous administration, respectively, with 3 mice in each group. Before administration, the animals were fasted for 10-14 hours, with water available ad lib.
SD Rat (male/female, total 6 animals) were assigned to two groups for oral administration and intravenous administration, respectively, with 3 mice in each group. Before administration, the animals were fasted for 10-14 hours, with water available ad lib.
The compounds to be tested were weighed out in accordance with intended dosage, formulated with vehicles (5% DMSO + 10% Solutol + 85% physiological saline) to dosage form at appropriate concentrations (administered intravenously and orally in rats or mice at a volume of 5 mL/kg and 10 mL/kg, respectively). The dosage form for intravenous injection is a clear solution, and the dosage form for oral administration is a clear solution or homogenous suspension.
Administration to animals was conducted through intravenous injection and oral gavage, and blood samples were collected at 0.033, 0.083, 0.25, 0.5, 1, 2, 4, 8, and 24 hours after intravenous injection, or at 0.083, 0.25, 0.5, 1, 2, 4, 6, 8, and 24 hours after oral administration. After centrifugation of whole blood samples at 4°C and 6,800g for 6 minutes, the upper layers of plasma were stored at -80°C refrigerator before analysis.
The DMSO stock solutions of the substance to be tested were diluted with methanol or acetonitrile solution to serial working solutions and added to blank plasma matrix to formulate samples for standard curve and quality control. An appropriate volume of plasma sample was added with appropriate fold of methanol or acetonitrile containing internal standards, according to response, for protein precipitation. After centrifugation of all samples at 4°C and 18,000g for 10 min, appropriate volumes of supernatant were taken for LC-MS/MS analysis.
Plasma drug concentration-time curves were plotted in accordance with tested concentrations, and pharmacokinetic parameters were calculated based on non-compartmental model using WinNonlin software, including half-life (T1/2), area under the drug concentration-time curve (AUC0-t), clearance rate (CL), steady-state distribution volume (Vss), bioavailability (F), etc.

The subject of data set [2] is testosterone, progesterone, corticosterone. As to the kind of experiment: LC-MS detection of testosterone, progesterone and corticosterone in mouse tumors and adrenal glands. The settings on record: mouse tumors and adrenal glands, VCaP model. In kind it is in vivo. An excerpt:
• Mouse tumors were homogenized using PBS in a 1:5 ratio (tumor weight (g): PBS volume (mL), w/v); • Mouse adrenal glands were homogenized using PBS in a 1:10 ratio (adrenal gland weight (g): PBS volume (mL), w/v); • Standard sample: testosterone (LGC, C17322500), progesterone (MCE, HY-N0437), adrenal ketone (MCE, HY-B1618), and standard solution of test substance.
Experiment procedures: since the three markers, i.e., testosterone, progesterone, and adrenal ketone, are all endogenous substances and present in the blank matrix as well, PBS was alternatively used as matrix in the production of the standard curve.
Testosterone: multiple reaction monitoring (MRM) method was used for detecting the concentrations of testosterone in mouse tumors and adrenal glands. Mass spectrum: AB Sciex Triple Quad 6500+; liquid chromatography: Shimadzu 40A, column: Waters XBridge BEH C18 2.5 µm 2.1*50mm, testosterone ion pair: 289.4/97.2. Both tumor and adrenal tissues were treated with methanol as precipitant and tolbutamide as internal standard for sample pretreatment, with linear range in 50-50,000pg/mL.
Progesterone and corticosterone: multi-reaction detection method (MRM) was used for detecting the concentrations of progesterone and corticosterone in mouse tumors and adrenal glands. Mass spectrum: AB Sciex Triple Quad 6500+; liquid chromatography: Shimadzu 40A, column: Waters XSelect HSS T3 2.5 µm 2.1*50mm, progesterone ion pair: 315.4/97.2, adrenone ion pair: 347.4/121.3. For tumor tissues, acetonitrile was used as precipitant and propranolol diclofenac as internal standard for sample pretreatment, with linear ranges in 0.05-10 ng/mL of progesterone and 0.10-20 ng/mL of corticosterone. For adrenal tissues, methanol was used as precipitant and propranolol diclofenac as internal standard for sample pretreatment, with linear ranges in 5-2,500 ng/mL of progesterone and 5-2,500 ng/mL of corticosterone.

For data set [3], the system named is VCaP castration-resistant prostate cancer subcutaneous transplant tumor model. As to the kind of experiment: In vivo pharmacodynamic study in a VCaP castration-resistant prostate cancer subcutaneous transplant tumor model. On the set-up: species or system SCID-Beige mice. The settings on record: 30mg/kg BID oral + prednisone 0.6mg/kg QD, castrated tumor-bearing mice, 32 days. How it is done:
Animals: experimental male SCID-Beige mice, 6-8-weeks old or 18-22g, provided by Beijing Vital River Laboratory Animal Technology Co., Ltd.
Experiment procedures: all experimental animals were kept within specific-pathogen-free animal barrier facility, and allowed 3 days of adaptation before the experiment began. VCaP tumor cells were in vitro cultured as monolayer in DMEM complete medium (with 10% fetal bovine serum and 1% penicillin & streptomycin) at 37°C in air containing 5% CO2. Tumor cells were routinely passaged 2-3 times a week, and cells in exponential growth phase were collected and counted for tumor cell inoculation. 10x10^6 VCaP tumor cells were resuspended in 0.1ml PBS, thoroughly mixed with 0.1ml matrigel, and then inoculated subcutaneously on the right flank of each mouse to form a tumor. The tumor-bearing mice were allowed to develop to an average tumor volume of around 200mm^3 and underwent castration surgery. The tumor volumes of all mice were measured after one week of castration surgery. Suitable tumor-bearing mice were selected and assigned randomly into the following groups: blank control group, prednisone (0.6mg/kg, QD) group, abiraterone (33.73mg/kg, QD) + prednisone (0.6mg/kg, QD) group, ODM-208 (30mg/kg, BID) + prednisone (0.6mg/kg, QD) group, and the compound of the present disclosure (30mg/kg, BID) + prednisone (0.6mg/kg, QD) group. Animals in blank control group were orally administered with vehicles (0.5%MC+0.5%Tween80 and 0.5%CMCNa), and the animals in other groups were orally administered with corresponding compound. The experiment lasted for 32 days, and during the experiment, the animals in each group were measured for tumor volume and body weight twice a week.

Data set [4] deals with T1, CYP11A1 (Homo sapiens, UniProt P05108).
T1 construct: host or cells: NCI-H295R
T1 sequence (P05108 40-521): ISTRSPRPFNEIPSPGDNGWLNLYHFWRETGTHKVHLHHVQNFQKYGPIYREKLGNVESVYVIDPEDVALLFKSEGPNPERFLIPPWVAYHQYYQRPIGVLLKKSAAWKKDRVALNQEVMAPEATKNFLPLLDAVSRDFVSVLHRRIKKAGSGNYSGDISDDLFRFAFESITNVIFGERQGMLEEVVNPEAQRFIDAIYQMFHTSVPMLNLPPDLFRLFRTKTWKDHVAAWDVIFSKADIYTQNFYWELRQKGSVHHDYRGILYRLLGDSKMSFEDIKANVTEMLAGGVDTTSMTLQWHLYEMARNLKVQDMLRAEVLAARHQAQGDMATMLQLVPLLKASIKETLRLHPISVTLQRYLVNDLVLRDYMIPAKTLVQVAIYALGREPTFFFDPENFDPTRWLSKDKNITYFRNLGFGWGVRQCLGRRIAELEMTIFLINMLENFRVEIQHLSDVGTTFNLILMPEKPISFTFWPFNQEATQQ
The experiment in a line: NCI-H295R cellular pregnenolone biosynthesis inhibition assay (ELISA method). In kind it is cell-based. The following applies: NCI-H295R cells, 3 days incubation, pregnenolone in cell supernatant by ELISA; read-out: IC50. How it is done:
The experiment aims to test the inhibitory effect of the compounds of the present disclosure on cellular pregnenolone biosynthesis, and to assess the inhibitory effect of the compounds on CYP11A1 target based on their IC50 values.
NCI-H295R cells (MINGZHOUBIO, MZ-2138) cultured in NCI-H295R complete medium (MINGZHOUBIO, MCM-0399).
Using culture medium, NCI-H295R cells were seeded into a new 384-well cell culture plate (Greiner, 781091) at a density of 5,000 cells per well, with 45µL of cell suspension per well. The test compounds were prepared by adding 5µL of compound solution at 10× concentration to each well, to a maximum final concentration of 10µM, followed by 3× serial dilution for 10 points, with a final DMSO concentration of 0.1%, centrifuging at 1,000 rpm for 1 minute at room temperature, and then incubating in a 5% CO2 cell incubator at 37°C for 3 days.
Pregnenolone ELISA kit (Abnova, KA1912) was used for detecting the content of pregnenolone in the supernatant of cell culture. Before detection, the reagents were allowed to come back to room temperature for 1 hour. After taking out the 384-well plate, the cellular supernatant was pipetted and subjected to 5× dilution with the Assay Buffer provided in the kit. A working solution of competitive molecule and a washing solution in accordance with the instructions was prepared. 50µL of diluted cellular supernatant were pipetted into the 96-well plate provided in the ELISA kit, added with 100µL of working solution of competitive molecule per well and the plate was incubated at room temperature for 1.5 hours. After discarding the liquid, the plate was washed with 300µL of washing solution per well three times and dried. After adding 150 µL of substrate chromogenic solution per well, the plate was incubated at room temperature for 10-15 minutes. After adding 50 µL of termination solution per well, the plate was incubated at room temperature for 10-15 minutes and read for absorbance at 450nm with Envision HTS Multilabel Reader.
The wells added with 1µM ODM-208 were defined as 100% inhibition (positive control), the wells containing DMSO at a final concentration of 0.1% were defined as 0% inhibition (negative control), and inhibitory ratio = (absorbance of tested sample - average absorbance of negative control)/(average absorbance of positive control - average absorbance of negative control)*100%. The data were subjected to four-parameter fitting using GraphPad Prism to calculate the IC50 values of the compounds.

Broadly, the AUC is the area under the concentration-time curve, a measure of exposure. High values mean more exposure, low ones less exposure. As usually defined, the Cmax is the peak of the concentration-time curve. One may read the bioavailability as dose-corrected exposure relative to a reference, in per cent. For `CS(=O)(=O)N1CCC(COc2coc(CN3Cc4ccccc4C3)cc2=O)CC1` [ODM-208, reference compound], in data set [1], the AUC was determined as 1310 ng·h/mL, the concentration peaked (Cmax) at 807 ng/mL and the bioavailability is 59%. Besides, the half-life in data set [1] (read-out: half-life (t1/2) (converted)) was 1.8 h. Moreover, the “secretion of testosterone, progesterone and corticosterone in tumors and adrenal glands (in words)” value in data set [2] was “significantly inhibits”. Also, the “tumor inhibition rate TGI” value in data set [3] came out at 85%.
For `Cn1c(CN2Cc3ccccc3C2)c(F)cc(C=CC2CCN(S(C)(=O)=O)CC2)c1=O` [compound 113], in data set [1], the AUC was more than 1700 ng·h/mL, the Cmax was more than 1000 ng/mL and the bioavailability was more than 60%.
The term IC50 denotes the midpoint of a concentration-inhibition curve. For the molecule `CC(=O)N1CCN(CCc2cc(F)c(CN3Cc4ccccc4C3)n(C)c2=O)CC1` [compound 119], the IC50 in data set [4] was 100 to 300 nM.
The same measure, in the same setting: with `Cn1c(CN2Cc3ccccc3C2)c(F)cc(-c2ccc3c(c2)CCN(S(C)(=O)=O)C3)c1=O` [compound 120] the figure was less than 100 nM; with `[2H]C([2H])(c1c(F)cc(CCC2CCN(C(=O)OC(C)(C)C)CC2)c(=O)n1C)N1Cc2ccccc2C1` [compound 121], less than 100 nM; with `Cn1c(CN2Cc3ccccc3C2)c(F)cc(C(O)CC2CCN(C(=O)OC(C)(C)C)CC2)c1=O` (centres unmarked) [compound 122], less than 100 nM.
Still for that read-out and setting: the same measure for `Cn1c(CN2Cc3ccccc3C2)c(F)cc(C(F)=CC2CCN(S(C)(=O)=O)CC2)c1=O` [compound 123]: less than 100 nM; for `Cn1c(CN2Cc3ccccc3C2)c(F)cc(C(F)CC2CCN(S(C)(=O)=O)CC2)c1=O` (centres unmarked) [compound 124]: less than 100 nM; for `Cn1c(CN2Cc3ccccc3C2)c(F)cc(C(=O)CC2CCN(C(=O)OC(C)(C)C)CC2)c1=O` [compound 125]: less than 100 nM.
As for `Cn1c(CN2Cc3ccccc3C2)c(F)cc(-c2cnc3c(c2)CCN(S(C)(=O)=O)C3)c1=O` [compound 126], the half-inhibitory concentration (IC50) in data set [4] was less than 100 nM.
The same measure, in the same setting: with `Cn1c(CN2Cc3ccccc3C2)c(F)cc(-c2ccc3c(n2)CCN(S(C)(=O)=O)C3)c1=O` [compound 127] the figure was more than 300 nM; with `Cn1c(CN2Cc3ccccc3C2)c(F)cc(C(F)=CC2CCN(C(=O)OC(C)(C)C)CC2)c1=O` [compound 128], 100 to 300 nM; with `Cn1c(CN2Cc3ccccc3C2)c(F)cc(CCN2CCN(C(=O)OC(C)(C)C)CC2)c1=O` [compound 129], less than 100 nM.
